Drawing on patent US6605626B2, “Antithrombotic agents” (Eli Lilly and Company, priority 1997, dated 2003), this text covers melting point for 4 compounds.

`COc1ccc(C(=O)Nc2ccc(OC)cc2NC(=O)c2ccc(OC)cc2)cc1` [Example 155, 4-Methoxy-N^1,N^2-bis(4-methoxybenzoyl)-1,2-benzenediamine] returned a melting point of 238 to 239 °C. `COc1ccc(NC(=O)c2ccccc2NC(=O)c2ccc(C(C)(C)C)cc2)cc1` [Example 89, 2-(4-tert-Butylbenzoylamino)-N-(4-methoxyphenyl)benzamide] gave a melting point of 208 to 210 °C. In turn, `CCNc1ccc(C(=O)Nc2ccc(OC)cc2)c(NC(=O)c2ccc(C(C)(C)C)cc2)c1` [Example 60a, 2-(4-tert-Butylbenzoylamino)-4-ethylamino-N-(4-methoxyphenyl)benzamide] yielded a melting point of 205 to 207.5 °C.

`COc1ccc(C(=O)Nc2cccc(O)c2NC(=O)c2ccc(OC)cc2)cc1` [Example 158, 2,3-bis[(4-Methoxybenzoyl)amino]phenol] displayed a melting point of 208 to 209 °C.
